Results: patent US20070213272A1, “Transmucosal Administration Agent Containing Pth” (priority 2004, published 2007)
“And” between values parts separate entries of the source, which are not always exact repeats. Equal entries are not always repeated.

How the values were obtained:
patients = details: subcutaneous administration, Neer et al. 2001; cited from earlier work
[1] = tested on: patients with primary osteoporosis; test: Safety evaluation: adverse events and side effects in transnasal clinical study; type: in vivo, human
Procedure: […] Here, hPTH1-34 transnasal administration formulation was produced by the method in Example 2 of International Patent Publication No. WO02/02136. Using a nebulizer VP-7 (Valois) which uniformly sprays 100 μL of the drug solution by pumping once, one pumping for each nasal cavity, the total of 200 μL of the drug solution was sprayed daily. […] A single dose containing each amount of hPTH(1-34) was administered once a day on consecutive days of 12 weeks, and effectiveness and safety of each amount was confirmed. Safety evaluation: the occurrence number of adverse events was counted and evaluated. In counting adverse and other events, coding to preferred terms (PT) and classification of adverse event names into system organ classes (SOC) were conducted based on “MedDRA Version6.1”.

[2] = PTH(1-34) level in plasma after caudal vein and subcutaneous administration (pharmacokinetics); type: in vivo, rat
Procedure: Changes of PTH(1-34) level in plasma by caudal vein administration (iv) and subcutaneous administration (sc) were examined. hPTH(1-34) was diluted with phosphate buffer solution (PBS)/0.05% Tween 80 and adjusted to 10 nmol/ml. Female SD-IGS rats at 8 weeks of age (Charles River Japan, Inc.) were used for the experiment. A single dose administration was carried out by caudal vein administration and subcutaneous administration, and blood was collected from tail vein using a capillary tube for blood collection in a time-dependent manner (at pre-administration, 2.5, 5, 7.5, 10, 15, 30, 60, 90, 120 min.). After EDTA plasma was isolated, the collected blood samples were stored at -80° C. until the hPTH(1-34) level was measured. The PTH(1-34) level was measured by ELISA method using PTH(1-34) (human)-EIA kit (Peninsula Laboratories).

[3] = transnasal, all dose groups, 97 subjects for safety evaluation
[4] = rat, iv (caudal vein) single dose, 10 nmol/ml solution, female SD-IGS rats, plasma
[5] = rat, sc single dose, 10 nmol/ml solution, female SD-IGS rats, plasma

## CC[C@H](C)[C@H](NC(=O)[C@H](CCC(=O)O)NC(=O)[C@H](CO)NC(=O)[C@@H](NC(=O)[C@@H](N)CO)C(C)C)C(=O)N[C@@H](CCC(N)=O)C(=O)N[C@@H](CC(C)C)C(=O)N[C@@H](CCSC)C(=O)N[C@@H](Cc1cnc[nH]1)C(=O)N[C@@H](CC(N)=O)C(=O)N[C@@H](CC(C)C)C(=O)NCC(=O)N[C@@H](CCCCN)C(=O)N[C@@H](Cc1cnc[nH]1)C(=O)N[C@@H](CC(C)C)C(=O)N[C@@H](CC(N)=O)C(=O)N[C@@H](CO)C(=O)N[C@@H](CCSC)C(=O)N[C@@H](CCC(=O)O)C(=O)N[C@@H](CCCN=C(N)N)C(=O)N[C@H](C(=O)N[C@@H](CCC(=O)O)C(=O)N[C@@H](Cc1c[nH]c2ccccc12)C(=O)N[C@@H](CC(C)C)C(=O)N[C@@H](CCCN=C(N)N)C(=O)N[C@@H](CCCCN)C(=O)N[C@@H](CCCCN)C(=O)N[C@@H](CC(C)C)C(=O)N[C@@H](CCC(N)=O)C(=O)N[C@@H](CC(=O)O)C(=O)N[C@H](C(=O)N[C@@H](Cc1cnc[nH]1)C(=O)N[C@@H](CC(N)=O)C(=O)N[C@@H](Cc1ccccc1)C(=O)O)C(C)C)C(C)C [hPTH(1-34)]
patients
  frequency of dizziness: 9%
  frequency of headache: 13%
  frequency of leg cramps: 3%
  frequency of nausea: 18%
[1]; transnasal, 250-μg group
  number of adverse events: 46 events
  number of side effect events: 12 events
  subjects with adverse events: 71.0%
  subjects with side effects: 22.6%
[1]; transnasal, 500-μg group
  number of adverse events: 51 events
  number of side effect events: 10 events
  subjects with adverse events: 76.7%
  subjects with side effects: 26.7%
[1]; transnasal, 1,000-μg group
  number of adverse events: 48 events
  number of side effect events: 13 events
  subjects with adverse events: 69.0%
  subjects with side effects: 24.1%
[1]; transnasal, 1,500-μg group
  number of adverse events: 10 events
  number of side effect events: 2 events
  subjects with adverse events: 71.4%
  subjects with side effects: 28.6%
[1]; transnasal, all dose groups
  frequency of leg cramps: no observation and 0%
  frequency of nausea: no observation and 0%
  number of side effect events: 37 events
  occurrence rate of clinical examination (SOC): 19.6%
  occurrence rate of dizziness: 4.1%
  occurrence rate of headache: 7.2%
  occurrence rate of heat failure (SOC): 21.6%
  occurrence rate of infectious disease and parasitic disease (SOC): 18.6%
  occurrence rate of nasopharyngitis (PT): 14.4%
  occurrence rate of supraventricular premature beat (PT): 12.4%
  occurrence rate of ventricular premature beat (PT): 5.2%
  side effect events with the occurrence rate of 5% or more: no event
  subjects with side effects: 24.7%
[1]; [3]
  number of adverse events: 155 events
  subjects with adverse events: 72.2%
[2]; iv versus sc single dose, rats
  PK profile of iv administration compared with sc administration: more pulse-like PK
[2]; [4]
  AUC: 17.8 ng·h/mL
  half-life: 6.9 min
[2]; [5]
  AUC: 3.83 ng·h/mL
  Cmax: 9 ng/mL
  Tmax: 20 min
  half-life: 10.8 min
